These results are taken from US20230117470A1, “SUBSTITUTED PYRAZOLE COMPOUNDS AS TOLL RECEPTOR INHIBITORS” (BRISTOL-MYERS SQUIBB COMPANY, priority 2019, published 2023).

Format in all cases: cell-based
The target in one assay is T1, human TLR8 (Homo sapiens, UniProt Q9NR97).
T1 construct: host or cells: HEK-Blue cells
T1 sequence (Q9NR97 27-1041): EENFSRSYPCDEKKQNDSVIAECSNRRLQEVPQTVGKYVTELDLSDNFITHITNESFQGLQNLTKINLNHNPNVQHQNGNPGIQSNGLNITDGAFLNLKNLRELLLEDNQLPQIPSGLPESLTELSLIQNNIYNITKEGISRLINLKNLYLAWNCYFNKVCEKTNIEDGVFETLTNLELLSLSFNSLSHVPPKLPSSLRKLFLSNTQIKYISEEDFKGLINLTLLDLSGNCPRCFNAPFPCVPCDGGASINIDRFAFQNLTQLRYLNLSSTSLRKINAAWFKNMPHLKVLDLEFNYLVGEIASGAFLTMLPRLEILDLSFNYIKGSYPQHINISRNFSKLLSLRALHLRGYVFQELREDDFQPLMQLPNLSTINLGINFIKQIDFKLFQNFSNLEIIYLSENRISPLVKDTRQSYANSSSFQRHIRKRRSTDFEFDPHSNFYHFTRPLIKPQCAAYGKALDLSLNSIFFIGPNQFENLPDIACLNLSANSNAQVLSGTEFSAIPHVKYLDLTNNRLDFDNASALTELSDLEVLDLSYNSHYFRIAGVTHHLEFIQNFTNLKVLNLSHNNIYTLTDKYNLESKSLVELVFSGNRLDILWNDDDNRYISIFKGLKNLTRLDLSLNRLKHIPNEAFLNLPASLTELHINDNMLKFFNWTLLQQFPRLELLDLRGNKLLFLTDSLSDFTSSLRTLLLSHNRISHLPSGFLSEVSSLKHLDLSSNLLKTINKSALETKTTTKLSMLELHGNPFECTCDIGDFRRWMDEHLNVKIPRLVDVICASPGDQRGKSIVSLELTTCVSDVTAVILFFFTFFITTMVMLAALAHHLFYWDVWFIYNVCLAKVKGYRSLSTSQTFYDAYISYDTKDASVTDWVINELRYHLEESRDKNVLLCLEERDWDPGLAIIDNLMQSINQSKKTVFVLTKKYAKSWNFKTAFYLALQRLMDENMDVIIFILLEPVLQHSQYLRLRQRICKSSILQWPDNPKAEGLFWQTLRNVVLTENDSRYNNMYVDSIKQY
In words: TLR8 inhibition reporter assay (HEK-Blue cells, SEAP reporter, R848 stimulation). The settings on record: HEK-Blue cells overexpressing human TLR8, SEAP reporter, R848 15.9 μM. The method, boiled down:
(§1)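 Cells were pre-treated 30 min at room temperature with compound (final 0.05 nM–50 μM), then stimulated with gardiquimod 7.5 μM (TLR7), R848 15.9 μM (TLR8) or ODN2006 5 nM (TLR9). SEAP was read after 22 h at 37° C; percent inhibition scaled between agonist+DMSO and known-inhibitor wells.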
A general note: In a reporter assay the amount or activity of a reporter protein is the signal.

In the next assay the target is T2, human TLR7 (Homo sapiens, UniProt Q9NYK1).
T2 construct: host or cells: HEK-Blue cells
T2 sequence (Q9NYK1 27-1049): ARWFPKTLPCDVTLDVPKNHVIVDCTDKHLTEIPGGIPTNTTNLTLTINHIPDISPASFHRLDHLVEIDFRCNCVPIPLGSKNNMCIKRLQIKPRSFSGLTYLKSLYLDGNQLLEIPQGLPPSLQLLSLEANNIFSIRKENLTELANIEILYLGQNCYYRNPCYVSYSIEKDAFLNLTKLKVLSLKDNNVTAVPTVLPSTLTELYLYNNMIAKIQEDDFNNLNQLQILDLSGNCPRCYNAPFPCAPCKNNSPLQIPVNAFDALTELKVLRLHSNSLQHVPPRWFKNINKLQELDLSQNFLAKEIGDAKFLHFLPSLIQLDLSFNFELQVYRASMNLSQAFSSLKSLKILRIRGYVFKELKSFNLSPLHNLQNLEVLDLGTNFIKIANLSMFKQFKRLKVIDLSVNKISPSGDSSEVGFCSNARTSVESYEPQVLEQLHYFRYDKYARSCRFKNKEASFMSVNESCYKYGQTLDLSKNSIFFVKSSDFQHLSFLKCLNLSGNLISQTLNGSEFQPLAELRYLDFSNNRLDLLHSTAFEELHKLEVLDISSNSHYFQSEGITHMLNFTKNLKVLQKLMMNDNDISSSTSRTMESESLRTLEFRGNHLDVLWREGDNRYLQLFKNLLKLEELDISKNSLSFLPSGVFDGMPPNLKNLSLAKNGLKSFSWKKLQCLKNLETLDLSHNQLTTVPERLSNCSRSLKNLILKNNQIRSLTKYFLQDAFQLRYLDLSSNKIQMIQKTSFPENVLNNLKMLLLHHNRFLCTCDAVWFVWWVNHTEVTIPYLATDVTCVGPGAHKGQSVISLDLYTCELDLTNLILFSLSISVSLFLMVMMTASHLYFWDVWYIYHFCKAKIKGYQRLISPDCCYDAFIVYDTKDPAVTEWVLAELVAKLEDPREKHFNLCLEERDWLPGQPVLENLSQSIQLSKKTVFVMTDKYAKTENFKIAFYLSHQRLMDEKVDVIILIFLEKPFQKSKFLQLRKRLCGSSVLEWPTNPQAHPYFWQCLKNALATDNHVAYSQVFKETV
Nature of the assay: TLR7 inhibition reporter assay (HEK-Blue cells, SEAP reporter, gardiquimod stimulation). The settings on record: HEK-Blue cells overexpressing human TLR7, SEAP reporter, gardiquimod 7.5 μM. The method, boiled down: as §1

For a further assay, the target named is T3, human TLR9 (Homo sapiens, UniProt Q9NR96).
T3 construct: host or cells: HEK-Blue cells
T3 sequence (Q9NR96 26-1032): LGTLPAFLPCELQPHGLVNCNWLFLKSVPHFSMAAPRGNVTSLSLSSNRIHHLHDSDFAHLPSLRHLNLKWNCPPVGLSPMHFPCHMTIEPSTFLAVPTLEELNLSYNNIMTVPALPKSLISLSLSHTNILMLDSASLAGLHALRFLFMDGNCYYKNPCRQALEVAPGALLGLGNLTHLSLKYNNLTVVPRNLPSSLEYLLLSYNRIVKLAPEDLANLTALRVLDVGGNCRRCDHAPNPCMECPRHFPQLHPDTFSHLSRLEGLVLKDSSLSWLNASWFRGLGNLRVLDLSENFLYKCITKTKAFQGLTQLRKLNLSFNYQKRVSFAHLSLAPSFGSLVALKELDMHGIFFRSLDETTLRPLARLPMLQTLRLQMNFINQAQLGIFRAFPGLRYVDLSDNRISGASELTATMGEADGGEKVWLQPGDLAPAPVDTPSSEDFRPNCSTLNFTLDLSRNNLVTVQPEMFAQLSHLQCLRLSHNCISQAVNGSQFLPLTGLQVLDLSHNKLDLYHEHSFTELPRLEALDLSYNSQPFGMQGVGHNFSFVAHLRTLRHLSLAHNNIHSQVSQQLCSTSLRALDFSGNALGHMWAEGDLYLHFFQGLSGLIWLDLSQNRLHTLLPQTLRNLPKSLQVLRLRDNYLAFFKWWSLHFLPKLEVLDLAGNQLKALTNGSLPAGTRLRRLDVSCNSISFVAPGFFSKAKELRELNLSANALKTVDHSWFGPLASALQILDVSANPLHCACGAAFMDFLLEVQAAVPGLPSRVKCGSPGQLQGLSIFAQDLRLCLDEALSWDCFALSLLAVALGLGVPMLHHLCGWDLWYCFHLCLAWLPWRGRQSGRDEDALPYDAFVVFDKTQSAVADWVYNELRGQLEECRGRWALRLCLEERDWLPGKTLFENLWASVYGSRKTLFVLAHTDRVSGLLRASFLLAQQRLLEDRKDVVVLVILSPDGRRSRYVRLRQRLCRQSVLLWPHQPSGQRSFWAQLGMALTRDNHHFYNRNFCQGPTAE
Nature of the assay: TLR9 inhibition reporter assay (HEK-Blue cells, SEAP reporter, ODN2006 stimulation). As to conditions: HEK-Blue cells overexpressing human TLR9, SEAP reporter, ODN2006 5 nM. The procedure, abridged:
as §1

Each structure is given as a SMILES string.

Take `COCCN1CCC(NC(=O)c2n[nH]c(-c3cc(C)c4ncnn4c3)c2C(C)C)CC1` [Example 171, 4-isopropyl-N-(1-(2-methoxyethyl)piperidin-4-yl)-5-(8-methyl-[1,2,4]triazolo[1,5-a]pyridin-6-yl)-1H-pyrazole-3-carboxamide]: the IC50 (as a rule, the midpoint of a concentration-inhibition curve) is 2.21 nM on human TLR8, 0.78 nM against human TLR7 and 0.879 µM on human TLR9.
Taken in the same sequence, the figures for `CCc1c(C(=O)NC2CCN(C)CC2)n[nH]c1-c1cc(C)c2ncnn2c1` [Example 181, 4-ethyl-5-(8-methyl-[1,2,4]triazolo[1,5-a]pyridin-6-yl)-N-(1-methylpiperidin-4-yl)-1H-pyrazole-3-carboxamide] were 36 nM, 9.92 nM and 5.66 µM.
Taken in the same sequence, the figures for `COc1ncc(CN2CCC(NC(=O)c3n[nH]c(-c4cc(C)c5ncnn5c4)c3C(C)C)CC2)cn1` [Example 157] were 11.9 nM, 37.4 nM and 16.4 µM.
For the compound `Cc1cc(-c2[nH]nc(C(=O)N[C@H]3CC[C@@H](NCC4(C)COC4)CC3)c2C(C)C)cn2ncnc12` [Example 151], the IC50 against human TLR8 was found to be 60 nM; against human TLR7, 49.2 nM; on human TLR9, 23.4 µM.
For `Cc1cc(-c2[nH]nc(-c3cnc(N)cn3)c2C(C)C)cn2ncnc12` [Example 226] the same measures were 0.41 nM, 0.35 nM and 6.78 µM.
Taken in the same sequence, the figures for `COc1cc(-c2[nH]nc(-c3ccc(C4CCN(CCS(C)(=O)=O)CC4)cn3)c2C(C)C)cn2ncnc12` [Example 392] were 404 nM, 241 nM and greater than 50 µM.
Taken in the same sequence, the figures for `CCN1CC(C(=O)N(C)C2CCC(c3n[nH]c(-c4cc(C)c5ncnn5c4)c3C(C)C)CC2)C1` (single isomer, unassigned) [Example 306] were 124 nM, 148 nM and greater than 50 µM.
For `COc1cc(-c2[nH]nc(-c3ccc(C4CCN(CC(C)(C)O)CC4)cc3)c2C(C)C)cn2ncnc12` [Example 319], the IC50 at human TLR8 was determined as 0.53 nM; against human TLR7, 3.84 nM; against human TLR9, 19.4 µM.
Taken in the same sequence, the figures for `CC(C)c1c(C(=O)NC2CCN(C)CC2)n[nH]c1-c1cn(C)c2ncccc12` [Example 41] were 2.66 nM, 1.19 nM and 8.43 µM.
For `Cc1cc(-c2[nH]nc(-c3cnc4c(c3)CNCC4)c2C(C)C)cn2ncnc12` [Example 230] the same measures were 1.5 nM, 4.92 nM and 43.5 µM.
`Cc1cc(-c2[nH]nc(-c3ccc4c(c3)CCN(CC(N)=O)C4)c2C(C)C)cn2ncnc12` [Example 272]: the IC50 at human TLR8 is 122 nM; against human TLR7, 137 nM; against human TLR9 it was greater than 50 µM.
For `COc1cc(-c2[nH]nc(-c3ccc(C4CCN(C(C)C)CC4)cn3)c2C(C)C)cn2ncnc12` [Example 350] the same measures were 0.12 nM, 8.11 nM and 21.7 µM.
For `Cc1cc(-c2[nH]nc(C(=O)N[C@H]3CCCN(C(C)C)C3)c2C(C)C)cn2ncnc12` [Example 163] the same measures were 20.6 nM, 1.59 nM and 9.4 µM.
For `Cc1cc(-c2[nH]nc(C(=O)N3CC[C@H](N)C3)c2C(C)C)cn2ncnc12` [Example 53] the same measures were 0.79 nM, 0.94 nM and 5.07 µM.
On to `Cc1cc(-c2[nH]nc(-c3ccc(C4CCN(C(=O)CN(C)C)CC4)cc3)c2C(C)C)cn2ncnc12` [Example 323, 2-(dimethylamino)-1-(4-(4-(4-isopropyl-5-(8-methyl-[1,2,4]triazolo[1,5-a]pyridin-6-yl)-1H-pyrazol-3-yl)phenyl)piperidin-1-yl)ethan-1-one], for which the figures for the IC50 against human TLR8, on human TLR7 and at human TLR9 were 3.86 nM, 22.4 nM and greater than 50 µM, respectively.
For `Cc1cc(-c2[nH]nc(C(=O)N[C@H]3CC[C@@H](NCC4CCCC4)CC3)c2C(C)C)cn2ncnc12` [Example 94] the same measures were 3.14 nM, 1.94 nM and 40.7 µM.
For `Cc1cc(-c2[nH]nc(-c3ccc4c(c3)CCN(CC(=O)N(C)C)C4)c2C(C)C)cn2ncnc12` [Example 271, 2-(6-(4-isopropyl-5-(8-methyl-[1,2,4]triazolo[1,5-a]pyridin-6-yl)-1H-pyrazol-3-yl)-3,4-dihydroisoquinolin-2(1H)-yl)-N,N-dimethylacetamide] the same measures were 1.94 nM, 0.96 nM and 4.56 µM.
For `Cc1cc(-c2[nH]nc(-c3ccc(N(C)C)nc3)c2C(C)C)cn2ncnc12` [Example 237] the same measures were 0.29 nM, 4.87 nM and 5.49 µM.
